Bounds are passed on as bounds.

In one test the target is bee venom phospholipase A2 (Apis mellifera, UniProt P00630). The test can be described thus: biochemical. Particulars: read-out: IC50, Phospholipase A2 Assay (50% inhibition of bee venom phospholipase A2).
bee venom phospholipase A2, sequence (P00630 34-167 limits assumed): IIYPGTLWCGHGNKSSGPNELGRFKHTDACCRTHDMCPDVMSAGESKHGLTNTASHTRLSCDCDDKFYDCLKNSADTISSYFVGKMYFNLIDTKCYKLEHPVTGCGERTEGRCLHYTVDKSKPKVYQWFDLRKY
A word on the IC50: it is the concentration at which inhibition is half-maximal. Turning to `CCCCCCCCCCCCC(CC(C)(C)O)C1=CC(=O)OC1O` (centres unmarked) [Compound 10, 4-[1-(2-Hydroxy-2-methylpropyl)tridecyl]-5-hydroxy-2(5H)-furanone], the IC50 is > 1 µM.
The same measure, in the same setting: next, `CCCCCCCCCCCCC(=CC(=O)C(F)(F)F)C1=CC(=O)OC1O` (centres unmarked) [Compound 23, (E),(Z)-4-[(1-Dodecyl-3-oxo-4,4,4-trifluoro)-1-butenyl]-5-hydroxy-2(5H)-furanone]: 0.04 µM.
On the same count and under the same terms, the value for `CCCCCCCCCCCCC(CP(=O)(OCC)OCC)C1=CC(=O)OC1O` (centres unmarked) [Compound 13, 4-[1-(diethylphosphonyl)methyl]tridecyl-5-hydroxy-2(5H)-furanone] was 0.1 µM.
The same measure, in the same setting: the value for `CCCCCCCCCCCCC(C1=CC(=O)OC1O)C(C(=O)OC)C(=O)OC` (centres unmarked) [Compound 11, 4-[-(1,1-Bis(carbomethoxy)methyl)tridecyl]-5-hydroxy-2(5H)-furanone] was 0.08 µM; that for `CCCCCCCCCCCCC(CC(C)=O)C1=CC(=O)OC1O` (centres unmarked) [Compound 8, 4-[1-(2-oxopropyl)tridecyl]-5-hydroxy-2(5H)-furanone] was 0.09 µM; that for `CCCCCCCCCCCCC(CC(=O)C(F)(F)F)C1=CC(=O)OC1O` (centres unmarked) [Compound 9, 4-[1-(3,3,3-Trifluoro-2-oxo)propyl]tridecyl-5-hydroxy-2(5H)-furanone] was 0.42 µM.
Regarding `CCCCCCCCCCCCC(CC(=O)O)C1=CC(=O)OC1O` (centres unmarked) [Compound 12, 4-[1-(Carboxymethyl)tridecyl]-5-hydroxy-2(5H)-furanone], the half-maximal inhibitory concentration (IC50) amounted to 0.13 µM.
As for `CC(=CCCC1=CCC(C2=CC(=O)OC2O)OC1O)CCC1=C(C)CCCC1(C)C` (centres unmarked) [Compound 1], the IC50 is 0.03 µM.
Consider `CCCCCCCCCCCCC(=CP(=O)(OCC)OCC)C1=CC(=O)OC1O` (centres unmarked) [Compound 24, 4-[(1-Dodecyl-2-diethylphosphonyl)-1-ethenyl]-5-hydroxy-2(5H)-furanone], for which the 50% inhibitory concentration (IC50) amounted to 0.08 µM.
Same read-out and setting: the value for `CCCCCCCCCCCCC(CC(=O)OCC)C1=CC(=O)OC1O` (centres unmarked) [Compound 7, 4-[1-(Ethoxycarbonylmethyl)tridecyl]-5-hydroxy-2(5H)-furanone] was 0.26 µM.

The subject of the next test is phosphoinositide-specific phospholipase C.
Experiment: not given
To be noted: Bennett et al, Molecular Pharmacology 32:587-593 (1987); cited from earlier work.
With `CC(=CCCC1=CCC(C2=CC(=O)OC2O)OC1O)CCC1=C(C)CCCC1(C)C` (centres unmarked) [Compound 1], the “inhibition of phosphoinositide-specific phospholipase C” value is listed as “This activity has been reported for manoalide”.

System in the next test: not given
Experiment: not given
Particulars: U.S. Pat. No. 4,447,445; European Patent Application No. 0133376; cited from earlier work.
Take `CC(=CCCC1=CCC(C2=CC(=O)OC2O)OC1O)CCC1=C(C)CCCC1(C)C` (centres unmarked) [Compound 1]: the biological activity result was “anti-inflammatory, immunosuppressive and analgesic properties”.
As for `CC(=CCCC(C=O)=CC=CC1=CC(=O)OC1O)CCC1=C(C)CCCC1(C)C` (centres unmarked) [Compound 3], the biological activity entry is reported as “anti-inflammatory inflammatory activity”.
With `CC(=CCCC(C=O)=CCC(O)C1=CC(=O)OC1O)CCC1=C(C)CCCC1(C)C` (centres unmarked) [Compound 2], the biological activity entry is “anti-inflammatory inflammatory activity”.
